US6147121A, “Skin toning by stimulating collagen synthesis/proliferation of dermal fibroblasts” (Societe L'Oreal S.A., priority 1998, dated 2000)

Assays:
[1] = tested on: normal human dermal fibroblast cultures; test: effect of resveratrol on the synthesis of collagen: incorporation of tritiated proline into newly synthesized proteins of normal human dermal fibroblast cultures; type: cell-based; set-up: unit of the concentration uncertain; settings: 48 hours contact, labelling 24 hours, not treated 22,528 cpm
Procedure: (§1) Investigating the effect of resveratrol on the synthesis of collagen: This study was carried out by measuring the incorporation of radioactive proline into the proteins newly synthesized by normal human dermal fibroblast cultures. These newly synthesized proteins were predominantly collagen fibers. The fibroblast cultures were conducted according to conventional cell culture techniques, namely, in MEM/M199 medium marketed by Gibco, in the presence of sodium bicarbonate (1.87 mg/ml), of L-glutamine (2 mM), of penicillin (50 IU/ml) and of 10% fetal calf serum (Gibco). The test was carried out on 80% confluent cell cultures in a 24-well plate. […] The labelling with tritiated proline (L-[2,3-^3 H]proline marketed by Amersham, 33 mCi/ml) was conducted for 24 hours. The amount of tritiated proline incorporated was measured at the end of the test by acid precipitation of the proteins on filters and liquid scintillation counting. The results were evaluated relative to a control consisting of cells which were not treated with resveratrol. A positive control (vitamin C at 20 mg/ml) known to stimulate the synthesis of collagen was included in the test as a reference.

[2] = tested on: normal human dermal fibroblast cultures; test: effect of resveratrol on the proliferation of the fibroblasts of the dermis: incorporation of radioactive thymidine into normal human dermal fibroblast cultures; type: cell-based; settings: for tritiated thymidine incorporated (cpm): 48 hours contact, labelling 24 hours, not treated 13,649 cpm
Procedure: Investigating the effect of resveratrol on the proliferation of the fibroblasts of the dermis:
This study was carried out by measuring the incorporation of radioactive thymidine into normal human dermal fibroblast cultures.
The fibroblast cultures were conducted according to conventional cell culture techniques, namely in MEM/M199 medium marketed by Gibco, in the presence of sodium bicarbonate (1.87 mg/ml), of L-glutamine (2 mM), of penicillin (50 IU/ml) and of 10% fetal calf serum (Gibco).
The test was carried out on 80% confluent cell cultures in a 24-well plate. Resveratrol, at the concentration of 1.25 mM and 5 mM, was placed in contact with the cells for 48 hours. The labelling with tritiated thymidine ([methyl-^3 H]thymidine marketed by Amersham, 82 Ci/mmol) was conducted for 24 hours.
The amount of tritiated thymidine incorporated was measured at the end of the test by acid precipitation of the proteins on filters and liquid scintillation counting.
The results were evaluated relative to a control consisting of cells which were not treated with resveratrol.
A positive control (fetal calf serum at 20%) known to stimulate the […] was included in the test as a reference.

[3] = tested on: interstitial collagenase (A2058 cells); test: effect of resveratrol on the production of interstitial collagenase in a culture of A2058 cells (Elisa); type: cell-based, human
Procedure: Effect of resveratrol on the expression of the collagenases:
The effect of resveratrol on the production of interstitial collagenase was evaluated in a model of culture of A2058 cells (derived from human malanomas: Templeton N. S. et al., Cancer Res., SO.- 54315431(1990)).
The cells were incubated in a phenol red-free MEM medium containing amino acids at the concentration of 2 mM, sodium pyruvate at the concentration of 1 mM and 10% charcoal-treated calf serum. They were then cultured at the density of 20,000 cells per well in the 24 wells of a multiwell plate.
Twenty-four hours after cultering, the cells were contacted with resveratrol. The production of interstitial collagenase was evaluated 96 hours later in the culture medium. This was carried out with the aid of an Elisa kit (Biotrack human MMPL; Amersham).
The resveratrol was tested at the concentrations 2×10^-7 M and 2×10^-6 M.
The results, expressed as percentages, represent the reduction in the production of interstitial collagenase compared with the control, namely, compared with a culture carried out under the same conditions in the absence of resveratrol.

[4] = tested on: normal human dermal fibroblast cultures; test: effect of resveratrol on the synthesis of collagen: incorporation of tritiated proline into newly synthesized proteins of normal human dermal fibroblast cultures; type: cell-based
Procedure: as §1

[5] = tested on: normal human dermal fibroblast cultures; test: as above; type: cell-based; set-up: dose or concentration left out as unconfirmed; settings: positive control; not treated 22,528 cpm
Procedure: as §1

## Oc1ccc(C=Cc2cc(O)cc(O)c2)cc1 [Resveratrol, 3,4',5-trihydroxystilbene]
[1]; 1.25 (unit uncertain)
  tritiated proline incorporated (cpm): 27,164 cpm
[1]; 5.00 (unit uncertain)
  tritiated proline incorporated (cpm): 25,769 cpm
[2]; 1.25 mM
  tritiated thymidine incorporated (cpm): 15,055 cpm
[2]; 5.00 mM
  tritiated thymidine incorporated (cpm): 19,229 cpm
[2]; Homo sapiens, Fibroblast, 1.25 mM, 48 hours, not treated = 100, p <0.05, read-out: tritiated thymidine incorporated, % relative to not treated control
  activity at 1250 µM: 110%
[2]; Homo sapiens, Fibroblast, 5.00 mM, 48 hours, not treated = 100, p <0.01, read-out: tritiated thymidine incorporated, % relative to not treated control
  activity at 5000 µM: 141%
[3]; Homo sapiens, 0.2 μM, 96 hours, A2058 cells, read-out: % inhibition (reduction in the production of interstitial collagenase compared with the control)
  inhibition at 0.2 µM: 14%
[3]; Homo sapiens, 2 μM, 96 hours, A2058 cells, read-out: % inhibition (reduction in the production of interstitial collagenase compared with the control)
  inhibition at 2 µM: 57%
[3]; conclusion from Table III
  production of interstitial collagenase by A2058 cells (in words): reduced the production of interstitial collegenase by the A 2058 cells and this in a dose-dependent manner
[4]; Homo sapiens, Fibroblast, 1.25 mM, 48 hours, not treated = 100, p <0.01, read-out: tritiated proline incorporated, % relative to not treated control
  activity at 1250 µM: 121%
[4]; Homo sapiens, Fibroblast, 5.00 mM, 48 hours, not treated = 100, p <0.05, read-out: tritiated proline incorporated, % relative to not treated control
  activity at 5000 µM: 114%
[4]; conclusion from Table I
  incorporation of proline into collagen (in words): substantially stimulated the incorporation of proline into collagen

## O=C1O[C@H]([C@@H](O)CO)C(O)=C1O [Vitamin C, reference compound]
[5]
  tritiated proline incorporated (cpm): 36,431 cpm
[4]; Homo sapiens, Fibroblast, 48 h, positive control, 20 mg/ml, not treated = 100, p <0.01, read-out: tritiated proline incorporated, % relative to not treated control
  activity at 20000 µg/mL: 162%
